{"source": "patent US9969699B2", "about": "“Cancer cell growth inhibitor, anticancer agent, and method for screening same, as well as novel compound” (Microbial Chemistry Research Foundation, priority 2014, dated 2018)", "key": {"[1]": {"experiment": "Acute toxicity test, intraperitoneal administration", "type": "in vivo, ICR mice", "conditions": "intraperitoneally once", "source_text": "Two-weeks after the compounds represented by the Structural Formula (1) at the above concentrations were intraperitoneally administered, the mice were dissected and organs thereof were weighed.\nTwo-weeks after the compounds represented by the Structural Formula (8) at the above concentrations were intraperitoneally administered, the mice were dissected and organs thereof were weighed."}, "[2]": {"experiment": "Acute toxicity test, tail vein administration", "type": "in vivo, ICR mice", "conditions": "tail vein once; for Organ weight Heart / Organ weight Kidney (Right) / Organ weight Liver / Organ weight Lung / Organ weight Spleen / Organ weight Thymus / Organ weight Kidney (Left): two weeks after", "description": "Two-weeks after the compounds represented by the Structural Formula (1) at the above concentrations were administered to the tail veins, the mice were dissected and organs thereof were weighed."}, "U251 cells": {"test_system": "U251 cells", "experiment": "3D cell culture step, EGFR vIII gene non-expressing brain tumor cells U251", "type": "cell-based", "conditions": "Test Example 3, U251 cells", "description": "(§1) The following 3 brain tumor cells were used as the EGFR vIII gene non-expressing cells. • U251 cells (available from ATCC) • U87MG cells (available from ATCC) • KS-1 cells (available from ATCC) <3D Cell Culture Step>\n(§2) After the 3 days of culture, the number of viable cells was counted by […]-GLO (trademark) Luminescent Cell Viability Assay (available from Promega), which was a method for quantitating ATP in viable cells. A cell proliferation inhibition rate in the 3D cell culture step was calculated according to (Expression 3) below. Cell proliferation inhibition rate(%)=(1−X/Y)×100 (Expression 3)\n(§3) In the (Expression 3), X denotes the number of viable cells when the test substance was added, and Y denotes the number of viable cells when the test substance was not added."}, "U87MG cells": {"test_system": "U87MG cells", "experiment": "3D cell culture step, EGFR vIII gene non-expressing brain tumor cells U87MG", "type": "cell-based", "conditions": "Test Example 3, U87MG cells", "description": "as §1, §2, §3"}, "[3]": {"experiment": "Acute toxicity test, oral administration", "type": "in vivo, ICR mice", "conditions": "orally once; for Organ weight Heart / Organ weight Kidney (Left) / Organ weight Kidney (Right) / Organ weight Liver / Organ weight Lung / Organ weight Spleen / Organ weight Thymus: two weeks after", "source_text": "Two-weeks after the compounds represented by the Structural Formula (1) at the above concentrations were orally administered, the mice were dissected and organs thereof were weighed.\nTwo-weeks after the compounds represented by the Structural Formula (8) at the above concentrations were orally administered, the mice were dissected and organs thereof were weighed."}, "KS-1 cells": {"test_system": "KS-1 cells", "experiment": "3D cell culture step, EGFR vIII gene non-expressing brain tumor cells KS-1", "type": "cell-based", "conditions": "Test Example 3, KS-1 cells", "description": "as §1, §2, §3"}, "[4]": {"experiment": "Solubility (remark in acute toxicity test)", "type": "physicochemical"}, "[5]": {"conditions": "50 mg/kg/0.4 mL, two weeks after"}, "[6]": {"conditions": "0.098 to 50 mg/kg, observed 2 weeks"}}, "data": [{"smiles": "Nc1ccc(Br)cc1-c1nc2ccccc2[nH]c1=O", "note": "[Structural Formula (1), 3-(2-amino-5-bromophenyl)-2(1H)-quinoxalinone]", "values": [{"measurement": "Organ weight Heart", "setting": "[1]; [5]", "value": 120.0, "unit": "mg"}, {"measurement": "Organ weight Kidney (Left)", "setting": "[1]; [5]", "value": 166.0, "unit": "mg"}, {"measurement": "Organ weight Kidney (Right)", "setting": "[1]; [5]", "value": 173.0, "unit": "mg"}, {"measurement": "Organ weight Liver", "setting": "[1]; [5]", "value": 1747.0, "unit": "mg"}, {"measurement": "Organ weight Lung", "setting": "[1]; [5]", "value": 168.0, "unit": "mg"}, {"measurement": "Organ weight Spleen", "setting": "[1]; [5]", "value": 132.0, "unit": "mg"}, {"measurement": "Organ weight Thymus", "setting": "[1]; [5]", "value": 69.0, "unit": "mg"}, {"measurement": "toxicity", "setting": "[1]; [6]", "value": "no significant toxicity"}, {"measurement": "Organ weight Heart", "setting": "[2]; 0.39 mg/kg/0.2 mL", "value": 121.0, "unit": "mg"}, {"measurement": "Organ weight Kidney (Right)", "setting": "[2]; 0.39 mg/kg/0.2 mL", "value": 168.0, "unit": "mg"}, {"measurement": "Organ weight Liver", "setting": "[2]; 0.39 mg/kg/0.2 mL", "value": 1325.0, "unit": "mg"}, {"measurement": "Organ weight Lung", "setting": "[2]; 0.39 mg/kg/0.2 mL", "value": 173.0, "unit": "mg"}, {"measurement": "Organ weight Spleen", "setting": "[2]; 0.39 mg/kg/0.2 mL", "value": 110.0, "unit": "mg"}, {"measurement": "Organ weight Thymus", "setting": "[2]; 0.39 mg/kg/0.2 mL", "value": 83.0, "unit": "mg"}, {"measurement": "Organ weight Heart", "setting": "[2]; 0.78 mg/kg/0.2 mL", "value": 116.0, "unit": "mg"}, {"measurement": "Organ weight Kidney (Left)", "setting": "[2]; 0.78 mg/kg/0.2 mL", "value": 165.0, "unit": "mg"}, {"measurement": "Organ weight Kidney (Right)", "setting": "[2]; 0.78 mg/kg/0.2 mL", "value": 174.0, "unit": "mg"}, {"measurement": "Organ weight Liver", "setting": "[2]; 0.78 mg/kg/0.2 mL", "value": 1423.0, "unit": "mg"}, {"measurement": "Organ weight Lung", "setting": "[2]; 0.78 mg/kg/0.2 mL", "value": 164.0, "unit": "mg"}, {"measurement": "Organ weight Spleen", "setting": "[2]; 0.78 mg/kg/0.2 mL", "value": 115.0, "unit": "mg"}, {"measurement": "Organ weight Thymus", "setting": "[2]; 0.78 mg/kg/0.2 mL", "value": 112.0, "unit": "mg"}, {"measurement": "Organ weight Heart", "setting": "[2]; 1.56 mg/kg/0.2 mL", "value": 121.0, "unit": "mg"}, {"measurement": "Organ weight Kidney (Left)", "setting": "[2]; 1.56 mg/kg/0.2 mL", "value": 170.0, "unit": "mg"}, {"measurement": "Organ weight Kidney (Right)", "setting": "[2]; 1.56 mg/kg/0.2 mL", "value": 167.0, "unit": "mg"}, {"measurement": "Organ weight Liver", "setting": "[2]; 1.56 mg/kg/0.2 mL", "value": 1471.0, "unit": "mg"}, {"measurement": "Organ weight Lung", "setting": "[2]; 1.56 mg/kg/0.2 mL", "value": 170.0, "unit": "mg"}, {"measurement": "Organ weight Spleen", "setting": "[2]; 1.56 mg/kg/0.2 mL", "value": 104.0, "unit": "mg"}, {"measurement": "Organ weight Thymus", "setting": "[2]; 1.56 mg/kg/0.2 mL", "value": 56.0, "unit": "mg"}, {"measurement": "toxicity", "setting": "[2]; observed 2 weeks", "value": "no significant toxicity"}, {"measurement": "inhibiting activity against scaffold-independent proliferation capacity", "setting": "U251 cells", "value": "did not exhibit an inhibiting activity"}, {"measurement": "inhibiting activity against scaffold-independent proliferation capacity", "setting": "U87MG cells", "value": "did not exhibit an inhibiting activity"}, {"measurement": "Organ weight Heart", "setting": "[3]; 0.098 mg/kg/0.2 mL", "value": 124.0, "unit": "mg"}, {"measurement": "Organ weight Kidney (Left)", "setting": "[3]; 0.098 mg/kg/0.2 mL", "value": 183.0, "unit": "mg"}, {"measurement": "Organ weight Kidney (Right)", "setting": "[3]; 0.098 mg/kg/0.2 mL", "value": 191.0, "unit": "mg"}, {"measurement": "Organ weight Liver", "setting": "[3]; 0.098 mg/kg/0.2 mL", "value": 1524.0, "unit": "mg"}, {"measurement": "Organ weight Lung", "setting": "[3]; 0.098 mg/kg/0.2 mL", "value": 163.0, "unit": "mg"}, {"measurement": "Organ weight Spleen", "setting": "[3]; 0.098 mg/kg/0.2 mL", "value": 132.0, "unit": "mg"}, {"measurement": "Organ weight Heart", "setting": "[3]; 6.25 mg/kg/0.2 mL", "value": 122.0, "unit": "mg"}, {"measurement": "Organ weight Lung", "setting": "[3]; 6.25 mg/kg/0.2 mL", "value": 169.0, "unit": "mg"}, {"measurement": "Organ weight Thymus", "setting": "[3]; 6.25 mg/kg/0.2 mL", "value": 112.0, "unit": "mg"}, {"measurement": "Organ weight Heart", "setting": "[3]; 12.5 mg/kg/0.2 mL", "value": 143.0, "unit": "mg"}, {"measurement": "Organ weight Kidney (Left)", "setting": "[3]; 12.5 mg/kg/0.2 mL", "value": 177.0, "unit": "mg"}, {"measurement": "Organ weight Kidney (Right)", "setting": "[3]; 12.5 mg/kg/0.2 mL", "value": 177.0, "unit": "mg"}, {"measurement": "Organ weight Liver", "setting": "[3]; 12.5 mg/kg/0.2 mL", "value": 1327.0, "unit": "mg"}, {"measurement": "Organ weight Lung", "setting": "[3]; 12.5 mg/kg/0.2 mL", "value": 191.0, "unit": "mg"}, {"measurement": "Organ weight Spleen", "setting": "[3]; 12.5 mg/kg/0.2 mL", "value": 173.0, "unit": "mg"}, {"measurement": "Organ weight Thymus", "setting": "[3]; 12.5 mg/kg/0.2 mL", "value": 99.0, "unit": "mg"}, {"measurement": "Organ weight Heart", "setting": "[3]; 25 mg/kg/0.2 mL", "value": 116.0, "unit": "mg"}, {"measurement": "Organ weight Kidney (Left)", "setting": "[3]; 25 mg/kg/0.2 mL", "value": 157.0, "unit": "mg"}, {"measurement": "Organ weight Kidney (Right)", "setting": "[3]; 25 mg/kg/0.2 mL", "value": 169.0, "unit": "mg"}, {"measurement": "Organ weight Liver", "setting": "[3]; 25 mg/kg/0.2 mL", "value": 1290.0, "unit": "mg"}, {"measurement": "Organ weight Lung", "setting": "[3]; 25 mg/kg/0.2 mL", "value": 176.0, "unit": "mg"}, {"measurement": "Organ weight Spleen", "setting": "[3]; 25 mg/kg/0.2 mL", "value": 100.0, "unit": "mg"}, {"measurement": "Organ weight Thymus", "setting": "[3]; 25 mg/kg/0.2 mL", "value": 87.0, "unit": "mg"}, {"measurement": "Organ weight Heart", "setting": "[3]; 50 mg/kg/0.4 mL", "value": 115.0, "unit": "mg"}, {"measurement": "Organ weight Kidney (Left)", "setting": "[3]; 50 mg/kg/0.4 mL", "value": 150.0, "unit": "mg"}, {"measurement": "Organ weight Kidney (Right)", "setting": "[3]; 50 mg/kg/0.4 mL", "value": 155.0, "unit": "mg"}, {"measurement": "Organ weight Liver", "setting": "[3]; 50 mg/kg/0.4 mL", "value": 1403.0, "unit": "mg"}, {"measurement": "Organ weight Lung", "setting": "[3]; 50 mg/kg/0.4 mL", "value": 166.0, "unit": "mg"}, {"measurement": "Organ weight Spleen", "setting": "[3]; 50 mg/kg/0.4 mL", "value": 117.0, "unit": "mg"}, {"measurement": "Organ weight Thymus", "setting": "[3]; 50 mg/kg/0.4 mL", "value": 95.0, "unit": "mg"}, {"measurement": "toxicity", "setting": "[3]; [6]", "value": "no significant toxicity"}, {"measurement": "inhibiting activity against scaffold-independent proliferation capacity", "setting": "KS-1 cells", "value": "did not exhibit an inhibiting activity"}, {"measurement": "solubility", "setting": "[4]", "value": "poor solubility"}]}]}
